From PMC5947712, “High‐Throughput Kinetic Analysis for Target‐Directed Covalent Ligand Discovery” (Angewandte Chemie (International Ed. in English), 2018)

Key:
Cdk2 = target: T1, Cdk2 (Homo sapiens, UniProt P24941); assay: In-cell target engagement: CuAAC biotin tagging, Neutravidin pulldown, anti-Cdk2 western blot; format: cell-based; conditions: HeLa cells, 6 hours treatment
T1 construct: endogenous in cells; host or cells: HeLa
Description: (§1) To evaluate whether this in vitro activity would translate into in‐cell target engagement, acrylamide 3 (REFCdk2(WT)=5.6, k GSH=0.033 h^−1, k Cdk2(WT)=0.185 h^−1) was synthesized as a target engagement probe, containing an alkyne handle for bio‐orthogonal ligation. HeLa cells were treated with probe 3 and protein lysates subjected to copper(I) catalyzed azide–alkyne cycloaddition (CuAAC)30 to affect biotin conjugation.
(§2) Figure 7 HeLa cells were treated with 3 for 6 hours. After tagging with biotin‐azide, Neutavidin pulldown was performed. Western blot analysis (anti‐Cdk2 and Cdk1) was performed before (Lysate) and after pulldown (PD).
(§3) 100Rfold! dilution! gave! the! optimum! seed! concentration! for! subsequent! crystallization.!Ligand" conjugated" Cdk2:!Crystallisation!
(§4) was! performed! by! mixing! 1! µL! of! labelled! Cdk2! solution! (8! mg! mLR1,! 100! mM! phosphate! buffer)! with! 0.5! µL! of! reservoir! soluR
(§5) tion! (Jeffamine! EDR2003! concentration! range! 18!R!30%! w/v,! 100! mM! HEPES,! pH! range! 7.5!–!8.5)! and! 0.5! µL! diluted! apoR
(§6) Cdk2(WT)!microseed!stock.!For!labelled!Cdk2(WT),!crystals!appeared!within!2–3!days!and!grew!for!another!10–14!days.!
(§7) L.,Molecular,dynamics,simulation, […]
(§8) maps!were!calculated!using!FFT[20]!and!figures!were!prepared!using!PyMol!(Schrödinger).! […]
(§9) Phosphorylation! of! […] Cdk2! during! gel! electrophoresis! and! the! reaction! was! monitored! by! […]

[1] = qIT (quantitative irreversible tethering) thiol consumption assay with glutathione; conditions: compound 0.5 mM, glutathione 5 μM, TCEP-agarose 2 % w/v
Description: To measure the kinetics of electrophile‐thiol conjugation we developed quantitative irreversible tethering (qIT), a technique which employs fluorogenic thiol quantification (FTQ) in a high‐throughput thiol consumption assay (Figure 1 a). […] We solved this problem using an immobilized reducing agent (TCEP‐agarose, 2 % w/v), allowing facile separation by centrifugation before conducting the FTQ step (Figure 1 b).
The target thiol (5 μM) is reacted with electrophilic fragments (0.5 mM) under pseudo‐first‐order conditions in the presence of TCEP‐agarose (2 % w/v). Reaction progress is followed by discrete measurements of residual target thiol concentration using the fluorogenic probe CPM and rate constants are derived from exponential regression analysis. b) TCEP‐agarose prevents aerobic thiol oxidation. Glutathione solutions were stored ±TCEP‐agarose (2 % w/v).
Electrophiles were individually reacted with glutathione under pseudo‐first‐order conditions in the presence of TCEP‐agarose. […] Fluorescence measurements were normalized against a DMSO control and exponential regressions used to determine rate constants.
ReactionBplate" setup:!Each! well! of! a! 96Rwell! PCR! plate! was! charged! with! 60–100! µL! of! target! thiol! (GSH! or! protein,! 10! µM)!
and! 4%! w/v! TCEPRagarose! beads! in! 100! mM! phosphate! buffer! (pH! 7.5! or! 8)! and! cooled! to! 4! ˚C.! Reactions! were! started! by!
addition! of! an! equal! volume! of! preRcooled! electrophile! solution! (1! mM,! 2%! DMSO)! in! 0.1! M! phosphate! buffer! (final! concentraR
tion:! thiol! =! 5! µM,! electrophile! =! 0.5! mM,! 2%! w/v! TCEPRagarose! beads),! with! a! minimum! of! 4! wells! per! plate! used! as!
DMSO/thiol! only! controls.! After! mixing,! TCEPRagarose! was! pelleted! by! centrifugation! (1,300! rpm,! 1! min)! and! the! plate! incuR
bated!at!4!˚C.,CPM"Quench:! At! a! series! of! time! points!

Cdk1 = target: T2, Cdk1 (Homo sapiens, UniProt P06493); assay: In-cell target engagement: CuAAC biotin tagging, Neutravidin pulldown, anti-Cdk1 western blot; format: cell-based; conditions: HeLa cells, 6 hours treatment
T2 construct: endogenous in cells; host or cells: HeLa
T2 sequence (P06493 whole entry): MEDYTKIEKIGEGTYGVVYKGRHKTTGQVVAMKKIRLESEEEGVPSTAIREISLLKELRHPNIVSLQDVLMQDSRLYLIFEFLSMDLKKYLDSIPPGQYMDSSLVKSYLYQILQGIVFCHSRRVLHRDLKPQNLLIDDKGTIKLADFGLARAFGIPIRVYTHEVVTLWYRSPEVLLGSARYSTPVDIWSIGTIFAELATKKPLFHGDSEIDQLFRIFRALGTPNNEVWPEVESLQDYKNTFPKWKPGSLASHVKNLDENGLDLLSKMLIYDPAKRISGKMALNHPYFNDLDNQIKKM
Description: as §1, §2, §3, §4, §5, §6, §7, §8, §9

Cdk2(WT) = Cdk2(WT) (Homo sapiens, UniProt P24941); assay: qIT thiol consumption assay with Cdk2(WT) (Cys177); format: binding; design: made in house; host or cells: E. coli Tuner(DE3)

SMILES: C#CCNC(=O)N1CCN(C(=O)C=C)c2ccccc21 [Acrylamide 3]
- enrichment of Cdk2 after pull-down (western blot) (Cdk2): concentration‐dependent enrichment
- k GSH (pseudo-first-order rate constant) [1]: 0.033 h⁻¹
- isolation of Cdk1 after pull-down (western blot) (Cdk1): not isolated
- k Cdk2(WT) (pseudo-first-order rate constant) (Cdk2(WT); compound 0.5 mM, Cdk2(WT) 5 μM, TCEP-agarose 2 % w/v): 0.185 h⁻¹
- REF Cdk2(WT) (rate enhancement factor = k protein/k GSH) (Cdk2(WT); k Cdk2(WT)/k GSH): 5.6
